As a reminder, the IC50 is the midpoint of a concentration-inhibition curve. What is called GI50 is the concentration giving 50% growth inhibition.

Where two headings read alike, the source gives them in different places.

These results are taken from publication PMC9116245, “New 1,2,3-triazole linked ciprofloxacin-chalcones induce DNA damage by inhibiting human topoisomerase I& II and tubulin polymerization” (Journal of Enzyme Inhibition and Medicinal Chemistry, 2022).

The subject of assay [1] is MCF-7 cancer cell lines. Also noted: method as in earlier work. Particulars: cited from earlier work.
On the set-up of assay [2]: method as in PMID 33248713, PMID 24090914. Particulars: Figure 1; cited from earlier work.
In assay [3] the test system is leukemia SR. Also noted: method as in PMID 33248713, PMID 24090914. Particulars: Figure 1; cited from earlier work.
The subject of assay [4] is non small lung cancer A459. The arrangement: method as in PMID 27555286. The following applies: non small lung cancer A459, printed in Figure 1; cited from earlier work.
Assay [5] concerns normal lung fibroblast WI-38. Also noted: method as in PMID 27555286. Particulars: normal lung fibroblast WI-38, printed in Figure 1; cited from earlier work.
Assay [6] has as its system Caco-2. Description: MTT assay. The format is cell-based. Particulars: Homo sapiens; Caco-2, MTT assay, 24 h incubation. As for the experimental part:
(§1) The proliferation of colorectal cancer cells (HCT116, HT29 and Caco-2) was assessed using MTT assay as previously reported. Cells were treated with increasing concentrations of 1, 5, 10, 20, 40, 80 or 100 µM of CP hybrids 4a-j, doxorubicin, or DMSO. See Supplementary Appendix A.
(In general: Tetrazolium dyes change colour on reduction, which living cells bring about.)

The subject of assay [7] is HCT116. As to the kind of experiment: MTT assay. The format is cell-based. Particulars: Homo sapiens, HCT-116, 24 h incubation. How it is done: as §1
Assay [8] relates to HT-29. Description: MTT assay. The format is cell-based. Particulars: Homo sapiens; HT-29, MTT assay, 24 h incubation. As for the experimental part:
as §1

Assay [9] deals with Human Embryonic Kidney (HEK) 293 cells. As to the kind of experiment: Cytotoxicity assay with non-cancerous cells (MTS). The format is cell-based. The following applies: Homo sapiens; HEK293, 72 h incubation.
Description: To evaluate the selectivity and safety profile of the synthesised CP hybrids, a cytotoxicity experiment of compounds 4a, 4b, 4e, 4i, and 4j was performed using normal Human Embryonic Kidney (HEK) 293 cells.
To evaluate the selectivity and safety profile of the synthesised ciprofloxacin-chalcone hybrids, a cytotoxicity experiment was performed using a non-cancerous cell line. Briefly, Human Embryonic Kidney (HEK) 293 cells (ATCC, Manassas, VA, USA) were cultured in a Dulbecco’s Modified Eagle Medium (DEMEM) supplemented with 1 mM sodium pyruvate, 10 mM HEPES buffer solution, 2 mM GlutaMAX (Gibco, Grand Island, NY, USA), 50 µg/mL gentamycin sulphate (Dubuque, IA, USA), and 10% foetal bovine serum (ThermoFisher Scientific, USA). Cells were seeded in 96-well plates and incubated overnight in a humidified atmosphere with 5% CO2 at 37 °C. After 24 h, cells were treated with different concentrations (0.01–100 µM) of ciprofloxacin-chalcone hybrids. Also, DMSO and doxorubicin were used as negative and positive controls, respectively. After 72 h, old medium containing treatments were removed, and fresh medium and MTS reagents (CellTiter 96® AQueous One Solution Cell Proliferation Assay, Promega, Madison, WI, USA) were added. […] After 2 h, the absorbance was measured at 490 nm using a Spectra Max plus 384 Microplate reader (Molecular Devices, Sunnyvale, CA, USA) [74]. […]
Assay [10] deals with tubulin polymerisation. Description: Tubulin immunofluorescence microscopy in HCT116 cells. The format is cell-based, human. Particulars: HCT116, IC50 of compound, 36 h. As for the experimental part:
(§2) The process of tubulin polymerisation in the cells is important for the completion of mitosis and is targeted for cancer treatment. It has been reported that the suppression of tubulin polymerisation will arrest the cells at the G2/M and it eventually leads to cell death. To test the tubulin-disruptive effect of the CP hybrids, HCT116 cells were analysed by immunocytochemistry. HCT116 cells were incubated for 36 h with IC50 of the CP hybrids (4a, 4b, 4e, 4i, and 4j), nocodazole (a well-known tubulin polymerisation inhibitor, as a positive control), DMSO or Paclitaxel (a well-known tubulin polymerisation inducer, as a negative control), and tubulin was visualised by immunofluorescence microscopy. An antibody for α-tubulin was used. […] Moreover, a Western blot was performed to verify the tubulin polymerisation inhibition ability of the synthesised compounds (Figure 8(B)). The level of polymerised tubulin was decreased in HCT116 cells treated with IC50 values of CP hybrids 4a, 4b, 4e, 4i, 4j, or nocodazole.
HCT116 cells were cultured and treated with the IC50 of the potent compounds (4a, 4b, 4e, 4i, and 4j) or DMSO (control), fixed, permeabilized, and they were incubated with either γH2AX or α-tubulin antibody as the reported procedure in the literature. Confocal images were captured using a Confocal Microscope with a 63X objective. All images were processed using ImageJ software. See Supplementary Appendix A.

Assay [11] concerns polymerised tubulin. Description: Western blot of polymerised tubulin in HCT116 cells. The format is cell-based, human. The following applies: HCT116, IC50 values of compounds. How it is done:
as §2
Western blotting analysis for HCT116 cells was performed according to the reported procedure in the literature[77–79] to determine the effects of CP hybrids; 4a, 4b, 4e, 4i, and 4j on the expression of polymerised tubulin, γH2AX, p-ATR, p-CHK1, and p-Cdc25C by using the appropriate antibody. See Supplementary Appendix A.

Consider `CCOc1cc(/C=C/C(=O)c2cccc(O)c2)ccc1OCc1cn(-c2cc(Cl)ccc2O)nn1` [X], for which the IC50 in assay [1] (MCF-7, 24 h) was 1270 nM; in assay [1] (MCF-7, 48 h) it was 20 nM. In the case of `O=C(CN1CCN(c2cc3c(cc2F)c(=O)c(C(=O)O)cn3C2CC2)CC1)Nc1ccc(C(=O)/C=C/c2ccccc2)cc1` [I], the GI50 in assay [2] was 0.43 to 39.6 µM. Regarding `COc1cc(/C=C/C(=O)c2ccc(NC(=O)N3CCN(c4cc5c(cc4F)c(=O)c(C(=O)O)cn5C4CC4)CC3)cc2)cc(OC)c1OC` [II], the IC50 in assay [3] was 640 nM. Regarding `O=C(CN1CCN(c2cc3c(cc2F)c(=O)c(C(=O)O)cn3C2CC2)CC1)Nc1ccc(Cl)cc1` [III], the IC50 was 14.8 µM in assay [4] and > 100 µM in [5].

In the case of `COc1cccc2c1C(=O)c1c(O)c3c(c(O)c1C2=O)C[C@@](O)(C(=O)CO)C[C@@H]3O[C@H]1C[C@H](N)[C@H](O)[C@H](C)O1` [Doxorubicin, reference compound], the IC50 is 4.15 ± 1.08 µM in assay [6], 1220 ± 270 nM in assay [7], 880 ± 580 nM in assay [8] and 47.5 nM in assay [9].

For the molecule `COC(=O)Nc1nc2ccc(C(=O)c3cccs3)cc2[nH]1` [nocodazole, reference compound], the “tubulin polymerisation, morphological changes by immunofluorescence” value in assay [10] is listed as “significant tubulin polymerisation inhibition”. In addition, the “level of polymerised tubulin, Western blot” value in [11] is “decreased”. For the molecule `CC[C@@]1(O)C(=O)OCc2c1cc1n(c2=O)Cc2cc3ccccc3nc2-1` [Camptothecin], the concentration for half-maximal inhibition (IC50) in [3] was 3320 nM.
